Numbered stars: 1 amine (or outer) side, 2 acyl side, 3 side chain; on linkers, the order of the positions; unused ones are H or OH. Square brackets hold non-standard residues; d marks the D form. Peptide text beside a SMILES is read from it. * marks the point of attachment. dArg(Nω-CONH(CH2)2NHCOEt) = CCC(=O)NCCNC(=O)/N=C(/N)NCCC[C@@H](N)C(=O)O; DOTA = O=C(O)CN1CCN(CC(=O)O)CCN(CC(=O)*)CCN(CC(=O)O)CC1; X1 = O=C([C@H](c1ccc(OCCCN[*:1])cc1)N1Cc2ccccc2C1)[*:2]; NH(2,6-F2-4-OH-benzyl) = Oc1cc(F)c(CN*)c(F)c1; Sar = CNCC(=O)O
target: hNPY1R (Homo sapiens (Human), UniProt P25929); experiment: NPY1R binding assay (SK-N-MC membrane, [125I]-Peptide YY competition); settings: not given;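 further: bound radioligand separated by filtration over GF/C filter plates and counted, Ki obtained by non-linear regression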
Sequence (P25929 whole entry): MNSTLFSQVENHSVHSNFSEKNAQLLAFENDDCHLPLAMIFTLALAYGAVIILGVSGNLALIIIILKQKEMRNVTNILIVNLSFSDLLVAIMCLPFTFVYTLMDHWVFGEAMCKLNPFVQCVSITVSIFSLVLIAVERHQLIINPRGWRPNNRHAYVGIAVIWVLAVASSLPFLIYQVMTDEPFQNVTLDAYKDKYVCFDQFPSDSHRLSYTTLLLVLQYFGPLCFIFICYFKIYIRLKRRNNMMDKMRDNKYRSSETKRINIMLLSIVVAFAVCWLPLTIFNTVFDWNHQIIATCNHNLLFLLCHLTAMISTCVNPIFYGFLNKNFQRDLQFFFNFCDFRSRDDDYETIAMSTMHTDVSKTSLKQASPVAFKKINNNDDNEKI

SMILES | Ki
CCC(=O)NCCNC(=O)/N=C(/N)NCCC[C@@H](NC(=O)[C@H](c1ccc(OCCCNC(=O)CCCCCNC(=O)CN2CCN3CCN4CCN(CC2)CC(=O)[O][Ga]([O]C(=O)C3)[O]C(=O)C4)cc1)N1Cc2ccccc2C1)C(=O)NCc1ccc(O)cc1 [1A-Ga, Gallium (III) 2,2′,2″-(10-(2-((6-((3-(4-((1S,4R,Z)-9-amino-4-((4-hydroxybenzyl)carbamoyl)-1-(isoindolin-2-yl)-2,11,16-trioxo-3,8,10,12,15-pentaazaoctadec-9-en-1-yl)phenoxy)propyl)amino)-6-oxohexyl)amino)-2-oxoethyl)-1,4,7,10-tetraazacyclododecane-1,4,7-triyl)triacetate] | < 0.01 µM

same assay, conditions: crude SK-N-MC membranes endogenously expressing NPY1R; [125I]-Peptide YY (human) 0.05 nM; 120 min at room temperature; read-out: hNPY1R binding Ki

SMILES | Ki
CCC(=O)NCCNC(=O)/N=C(/N)NCCC[C@@H](NC(=O)[C@H](c1ccc(OCCCCNC(=O)CCCCCNC(=O)CN2CCN(CC(=O)O)CCN(CC(=O)O)CCN(CC(=O)O)CC2)cc1)N1Cc2ccccc2C1)C(=O)NCc1ccc(O)cc1 [compound 57, 2,2′,2″-(10-(2-((6-((4-(4-((1S,4R,Z)-9-amino-4-((4-hydroxybenzyl)carbamoyl)-1-(isoindolin-2-yl)-2,11,16-trioxo-3,8,10,12,15-pentaazaoctadec-9-en-1-yl)phenoxy)butyl)amino)-6-oxohexyl)amino)-2-oxoethyl)-1,4,7,10-tetraazacyclododecane-1,4,7-triyl)triacetic acid] | < 0.01 µM
CCC(=O)NCCNC(=O)/N=C(/N)NCCC[C@@H](NC(=O)[C@H](c1ccc(OCCCNC(=O)CCC(=O)NCCNC(=O)CN2CCN(CC(=O)O)CCN(CC(=O)O)CCN(CC(=O)O)CC2)cc1)N1Cc2ccccc2C1)C(=O)NCc1c(F)cc(O)cc1F [compound 7, 2,2′,2″-(10-(2-((2-(4-((3-(4-((1S,4R,Z)-9-amino-4-((2,6-difluoro-4-hydroxybenzyl)carbamoyl)-1-(isoindolin-2-yl)-2,11,16-trioxo-3,8,10,12,15-pentaazaoctadec-9-en-1-yl)phenoxy)propyl)amino)-4-oxobutanamido)ethyl)amino)-2-oxoethyl)-1,4,7,10-tetraazacyclododecane-1,4,7-triyl)triacetic acid-2,2,2-trifluoroacetic acid (1/1)] | < 0.01 µM
CCC(=O)NCCNC(=O)/N=C(/N)NCCC[C@@H](NC(=O)[C@H](c1ccc(OCCCNC(=O)C[C@H]2NC(=O)[C@@H](CCNC(=O)CN3CCN(CC(=O)O)CCN(CC(=O)O)CCN(CC(=O)O)CC3)NC2=O)cc1)N1Cc2ccccc2C1)C(=O)NCc1c(F)cc(O)cc1F [compound 52, 2,2′,2″-(10-(2-((2-((2R,5R)-5-(2-((3-(4-((1S,4R,Z)-9-amino-4-((2,6-difluoro-4-hydroxybenzyl)carbamoyl)-1-(isoindolin-2-yl)-2,11,16-trioxo-3,8,10,12,15-pentaazaoctadec-9-en-1-yl)phenoxy)propyl)amino)-2-oxoethyl)-3,6-dioxopiperazin-2-yl)ethyl)amino)-2-oxoethyl)-1,4,7,10-tetraazacyclododecane-1,4,7-triyl)triacetic acid] | < 0.01 µM
CCC(=O)NCCNC(=O)/N=C(/N)NCCC[C@@H](NC(=O)[C@H](c1ccc(CCCOCCOCCNC(=O)CN2CCN(CC(=O)O)CCN(CC(=O)O)CCN(CC(=O)O)CC2)cc1)N1Cc2ccccc2C1)C(=O)NCc1c(F)cc(O)cc1F (single isomer, unassigned) [8A] | < 0.01 µM
N=C(N)NCCC[C@@H](NC(=O)C(c1ccccc1)N1CCC2(CCCCC2)CC1)C(=O)NCc1ccc(O)cc1 (stereo partly drawn) [compound 87, (2R)-5-guanidino-N-(4-hydroxybenzyl)-2-(2-phenyl-2-(3-azaspiro[5.5]undecan-3-yl)acetamido)pentanamide] | 0.1 to 1 µM
CCC(=O)NCCNC(=O)/N=C(/N)NCCC[C@@H](NC(=O)[C@H](c1cccc(NCCCNC(=O)[C@@H](CO)NC(=O)CCNC(=O)CN2CCN(CC(=O)O)CCN(CC(=O)O)CCN(CC(=O)O)CC2)c1)N1Cc2ccccc2C1)C(=O)NCc1ccc(O)cc1 [compound 30, 2,2′,2″-(10-(2-((3-(((R)-1-((3-((3-((1S,4R,Z)-9-amino-4-((4-hydroxybenzyl)carbamoyl)-1-(isoindolin-2-yl)-2,11,16-trioxo-3,8,10,12,15-pentaazaoctadec-9-en-1-yl)phenyl)amino)propyl)amino)-3-hydroxy-1-oxopropan-2-yl)amino)-3-oxopropyl)amino)-2-oxoethyl)-1,4,7,10-tetraazacyclododecane-1,4,7-triyl)triacetic acid] | < 0.01 µM
CCC(=O)NCCNC(=O)/N=C(/N)NCCC[C@@H](NC(=O)[C@H](c1ccc(OCCCNC2CCN(C(=O)CCCCCNC(=O)CN3CCN(CC(=O)O)CCN(CC(=O)O)CCN(CC(=O)O)CC3)CC2)cc1)N1Cc2ccccc2C1)C(=O)NCc1c(F)cc(O)cc1F [compound 5, 2,2′,2″-(10-(2-((6-(4-((3-(4-((1S,4R,Z)-9-amino-4-((2,6-difluoro-4-hydroxybenzyl)carbamoyl)-1-(isoindolin-2-yl)-2,11,16-trioxo-3,8,10,12,15-pentaazaoctadec-9-en-1-yl)phenoxy)propyl)amino)piperidin-1-yl)-6-oxohexyl)amino)-2-oxoethyl)-1,4,7,10-tetraazacyclododecane-1,4,7-triyl)triacetic acid-2,2,2-trifluoroacetic acid (1/1)] | < 0.01 µM
CCC(=O)NCCNC(=O)/N=C(/N)NCCC[C@@H](NC(=O)[C@H](c1cccc(NCCCNC(=O)CCOCCOCCOCCOCCOCCOCCNC(=O)CN2CCN(CC(=O)O)CCN(CC(=O)O)CCN(CC(=O)O)CC2)c1)N1Cc2ccccc2C1)C(=O)NCc1ccc(O)cc1 [compound 23, 2,2′,2″-(10-(28-((3-((1S,4R,Z)-9-amino-4-((4-hydroxybenzyl)carbamoyl)-1-(isoindolin-2-yl)-2,11,16-trioxo-3,8,10,12,15-pentaazaoctadec-9-en-1-yl)phenyl)amino)-2,24-dioxo-6,9,12,15,18,21-hexaoxa-3,25-diazaoctacosyl)-1,4,7,10-tetraazacyclododecane-1,4,7-triyl)triacetic acid] | < 0.01 µM
CCC(=O)NCCNC(=O)/N=C(/N)NCCC[C@@H](NC(=O)[C@H](c1ccc(OCCCNC(=O)C[C@H]2NC(=O)[C@@H](CCCNC(=O)CN3CCN(CC(=O)O)CCN(CC(=O)O)CCN(CC(=O)O)CC3)NC2=O)cc1)N1Cc2ccccc2C1)C(=O)NCc1c(F)cc(O)cc1F [compound 38, 2,2′,2″-(10-(2-((3-((2R,5R)-5-(2-((3-(4-((1S,4R,Z)-9-amino-4-((2,6-difluoro-4-hydroxybenzyl)carbamoyl)-1-(isoindolin-2-yl)-2,11,16-trioxo-3,8,10,12,15-pentaazaoctadec-9-en-1-yl)phenoxy)propyl)amino)-2-oxoethyl)-3,6-dioxopiperazin-2-yl)propyl)amino)-2-oxoethyl)-1,4,7,10-tetraazacyclododecane-1,4,7-triyl)triacetic acid] | < 0.01 µM
CCC(=O)NCCNC(=O)/N=C(/N)NCCC[C@@H](NC(=O)[C@H](c1ccc(OCCCNC(=O)CN(C)C(=O)CN(C)C(=O)CN(C)C(=O)CN2CCN(CC(=O)O)CCN(CC(=O)O)CCN(CC(=O)O)CC2)cc1)N1Cc2ccccc2C1)C(=O)NCc1c(F)cc(O)cc1F [compound 46, 2,2′,2″-(10-(15-(4-((1S,4R,Z)-9-amino-4-((2,6-difluoro-4-hydroxybenzyl)carbamoyl)-1-(isoindolin-2-yl)-2,11,16-trioxo-3,8,10,12,15-pentaazaoctadec-9-en-1-yl)phenoxy)-3,6,9-trimethyl-2,5,8,11-tetraoxo-3,6,9,12-tetraazapentadecyl)-1,4,7,10-tetraazacyclododecane-1,4,7-triyl)triacetic acid] ({DOTA}-[Sar][Sar][Sar][X1][dArg(Nω-CONH(CH2)2NHCOEt)]-{NH(2,6-F2-4-OH-benzyl)}) | < 0.01 µM
CCNC(=O)/N=C(/N)NCCC[C@@H](NC(=O)C(c1ccccc1)N1CCC(C(C)(C)C)CC1)C(=O)NCc1c(F)cc(O)cc1F (stereo partly drawn) [compound 92, (2R)-2-(2-(4-(tert-butyl)piperidin-1-yl)-2-phenylacetamido)-N-(2,6-difluoro-4-hydroxybenzyl)-5-((Z)-2-(ethylcarbamoyl)guanidino)pentanamide] | < 0.01 µM
CCC(=O)NCCNC(=O)/N=C(/N)NCCC[C@@H](NC(=O)[C@@H](c1ccccc1)N1Cc2ccccc2C1)C(=O)NCc1ccc(O)cc1 [60B, (R)—N-(4-hydroxybenzyl)-2-((R)-2-(isoindolin-2-yl)-2-phenylacetamido)-5-((Z)-2-((2-propionamidoethyl)carbamoyl)guanidino)pentanamide] | 0.01 to 0.1 µM
CCNC(=O)/N=C(/N)NCCC[C@@H](NC(=O)[C@@H](c1cccc(NCCCN)c1)N1Cc2ccccc2C1)C(=O)NCc1c(F)cc(O)cc1F [66B, (R)-2-((R)-2-(3-((3-aminopropyl)amino)phenyl)-2-(isoindolin-2-yl)acetamido)-N-(2,6-difluoro-4-hydroxybenzyl)-5-((Z)-2-(ethylcarbamoyl)guanidino)pentanamide] | < 0.01 µM
CC(C)C1CCN(C(C(=O)N[C@H](CCCNC(=N)N)C(=O)NCc2ccc(O)cc2)c2ccccc2)CC1 (stereo partly drawn) [compound 77, (2R)-5-guanidino-N-(4-hydroxybenzyl)-2-(2-(4-isopropylpiperidin-1-yl)-2-phenylacetamido)pentanamide] | 0.01 to 0.1 µM
CCCC1CCN([C@@H](C(=O)N[C@H](CCCNC(=N)N)C(=O)NCc2ccc(O)cc2)c2ccccc2)CC1 [78A, (R)-5-guanidino-N-(4-hydroxybenzyl)-2-((R)-2-phenyl-2-(4-propylpiperidin-1-yl)acetamido)pentanamide] | > 1 µM
CCNC(=O)/N=C(/N)NCCC[C@@H](NC(=O)[C@H](c1cccc(NCCCNC(=O)[C@H](N)CCCCNC(=O)CN2CCN(CC(=O)O)CCN(CC(=O)O)CCN(CC(=O)O)CC2)c1)N1Cc2ccccc2C1)C(=O)NCc1c(F)cc(O)cc1F [compound 13, 2,2′,2″-(10-(2-(((R)-5-amino-6-((3-((3-((11R,14S,Z)-6-amino-11-((2,6-difluoro-4-hydroxybenzyl)carbamoyl)-14-(isoindolin-2-yl)-4,13-dioxo-3,5,7,12-tetraazatetradec-5-en-14-yl)phenyl)amino)propyl)amino)-6-oxohexyl)amino)-2-oxoethyl)-1,4,7,10-tetraazacyclododecane-1,4,7-triyl)triacetic acid] | < 0.01 µM
